“Also recorded” adds a separate entry of the source.
Key:
NMDA receptor NR1a-NR2A = NMDA receptor NR1a-NR2A (Homo sapiens, UniProt Q05586+Q12879); assay: Glutamate-evoked currents at NR1a-NR2A receptors in Xenopus oocytes (two electrode voltage-clamp); format: cell-based
Procedure: All experiments were carried out at receptors expressed in Xenopus oocytes using the method of cDNA expression. Currents evoked by glutamate were recorded using the standard two electrode voltage-clamp configuration (TVEC). Xenopus oocytes were prepared and injected using standard procedures.
Briefly, ovaries are harvested from Xenopus Laevis females that have been deeply anesthetized and pithed following the animal rights rule from the Geneva canton. A small piece of ovary is isolated for immediate preparation while the remaining part is placed at 4° C. in a sterile Barth solution containing in mM NaCl 88, KCl 1, NaHCO3 2.4, HEPES 10, MgSO4.7H2O 0.82, Ca(NO3)2.4H2O 0.33, CaCl2.6H2O 0.41, at pH 7.4, and supplemented with 20 μg/ml of kanamycine, 100 unit/ml penicillin and 100 μg/ml streptomycin. On the second day following dissociation, oocytes are injected with 2 ng of cDNA per oocyte containing the NR1a-NR2A or NR1a-NR2B using an automated injector (Hogg et al., J. Neurosci. Methods, 2008). […] Cells were held at −80 mV. Data were filtered at 10 Hz, captured at 100 Hz and analyzed using HiQ proprietary data acquisition and analysis software running under Matlab (Mathworks Inc.).
Oocytes expressing the NR1a-NR2A or NR1a-NR2B receptors were challenged at periodic intervals with a glutamate test pulse. Test drug was then applied during a sustained period and its effects monitored by measuring the amplitude and time course of the glutamate evoked currents.
Experiments were carried out with the NR1a-NR2A and NR1a-NR2B at least in triplicate. Positive reference compounds (ketamine and MK-801) were tested using the same protocol.
To further evaluate effects of TC-5214, experiments using sustained exposure to this compound followed by a recovery period were carried out at NR1a-NR2A and NR1a-NR2B receptors. Measurements were made with (nM) 0, 3, 10, 30, 100, 300, TC-5214 and recovery monitored during 10 minutes. In addition, the same experimental protocol will be used with cells in control conditions to assess the stability of the measurements. Effects were measured in at least three cells.
A use-dependent protocol was used to identify non-competitive inhibition of the receptors. Cells expressing the NMDA receptors were tested for their sensitivity to TC-5214 at 30 nM, using the same protocol as described above. Cells from the same batch were tested in parallel using the same incubation time with an identical concentration of TC-5214 (30 nM) but in absence of pulses during the incubation time with the compound. Two glutamate pulses were applied at the end of the incubation time, and recovery monitored as for the control conditions.

[1] = Urinary excretion and bladder/urine concentration after oral dosing, clinical program for depression; format: in vivo, human; conditions: for excretion unchanged in the urine: human, in vivo
Procedure: One aspect of the present invention is the use of dexmecamylamine as an oral agent for intravesical drug delivery. Oral doses (up to 4 mg BID) of dexmecamylamine evaluated during clinical studies for depression produced concentrations in the bladder in excess of 10 μM. […] Nicotinic receptors, including α3, α7, and β4, are expressed in the bladder urothelium itself. Agents that block nicotinic receptors in the bladder, such as hexamethonium, decrease bladder contractions and may block sensation of urgency. Inhibition of the α3 receptor diminishes bladder contraction frequency and afferent signaling to the brain (via P2X), thereby blocking or reducing the sensation of urgency. […] (Xu et al., Megacystis, mydriasis, and ion channel defect in mice lacking the α3 neuronal nicotinic acetylcholine receptor, Proc. Natl. Acad. Sci., Vol. 96, pp. 5746-5751, May 1999.)
During the dexmecamylamine clinical program for depression, including the initial phase 1 study (conducted by Targacept), ≧90% of orally administered dexmecamylamine was excreted unchanged in the […].

[2] = format: in vivo, human
Procedure: More recently, dexmecamylamine was evaluated as adjunctive therapy in the treatment of major depressive disorder (MDD) in a large international Phase 3 depression program. […] More than 2400 subjects have received dexmecamylamine in double-blind or open-label studies.
No safety studies using dexmecamylamine have been performed in OAB. Phase 2 and Phase 3 clinical studies using dexmecamylamine in Major Depressive Disorder (MDD) have been conducted and completed. […] Briefly, in the fixed dose Phase 3 studies in MDD, at doses of 2 mg BID (the maximum doses to be studied in the OAB study), the most frequent treatment emergent adverse events that were reported more than 2% more commonly in the dexmecamylamine group compared to placebo group were: constipation (15.2% dexmecamylamine vs. 3.8% placebo); and dry mouth (7.0% dexmecamylamine vs. 1.3% placebo).

[3] = Clinical trial for treatment of depression: rates of urinary tract infection and urinary retention; format: in vivo, human; conditions: oral tablets 0.1, 0.5, 2 or 4 mg BID
Procedure: FIG. 24 is a table showing rates of urinary tract infection (UTI) and urinary retention in human patients administered dexmecamylamine in a yet unpublished clinical trial for treatment of depression. Patients received orally administered dexmecamylamine tablets of 0.1 mg, 0.5 mg, 2 mg or 4 mg BID (twice daily). At the end of the trial period, the patients were evaluated and the rates of side effects, including urinary tract infection (UTI) and urinary retention, were recorded.

[4] = system: bladder function in conscious Sprague Dawley rats; assay: Oral administration (gavage) in awake, conscious rats, cystometry; conditions: 1 mg/kg oral gavage; for bladder contraction amplitude: compared to baseline/control; for change in spontaneous activity (SA), a surrogate for urge: compared to control; for change in bladder capacity / change in micturition interval / ICI / change in micturition volume: relative to baseline/control
Procedure: A further study was conducted to evaluate the effects of TC-5214 on bladder function in awake, conscious Sprague Dawley rats.
Nine female Sprague Dawley rats received intravesical saline at a rate of 10 mL/hr. Following a 60-minute baseline evaluation, rats were administered dexmecamylamine at a dose of 1 mg/kg by oral gavage, a dose previously determined to be the “No Effect Dose” in safety pharmacology studies. Two hours following the oral administration of dexmecamylamine, cystometric parameters were collected over a period of one hour.

Chain of NMDA receptor NR1a-NR2A (Q12879 23-1464, other chains not shown): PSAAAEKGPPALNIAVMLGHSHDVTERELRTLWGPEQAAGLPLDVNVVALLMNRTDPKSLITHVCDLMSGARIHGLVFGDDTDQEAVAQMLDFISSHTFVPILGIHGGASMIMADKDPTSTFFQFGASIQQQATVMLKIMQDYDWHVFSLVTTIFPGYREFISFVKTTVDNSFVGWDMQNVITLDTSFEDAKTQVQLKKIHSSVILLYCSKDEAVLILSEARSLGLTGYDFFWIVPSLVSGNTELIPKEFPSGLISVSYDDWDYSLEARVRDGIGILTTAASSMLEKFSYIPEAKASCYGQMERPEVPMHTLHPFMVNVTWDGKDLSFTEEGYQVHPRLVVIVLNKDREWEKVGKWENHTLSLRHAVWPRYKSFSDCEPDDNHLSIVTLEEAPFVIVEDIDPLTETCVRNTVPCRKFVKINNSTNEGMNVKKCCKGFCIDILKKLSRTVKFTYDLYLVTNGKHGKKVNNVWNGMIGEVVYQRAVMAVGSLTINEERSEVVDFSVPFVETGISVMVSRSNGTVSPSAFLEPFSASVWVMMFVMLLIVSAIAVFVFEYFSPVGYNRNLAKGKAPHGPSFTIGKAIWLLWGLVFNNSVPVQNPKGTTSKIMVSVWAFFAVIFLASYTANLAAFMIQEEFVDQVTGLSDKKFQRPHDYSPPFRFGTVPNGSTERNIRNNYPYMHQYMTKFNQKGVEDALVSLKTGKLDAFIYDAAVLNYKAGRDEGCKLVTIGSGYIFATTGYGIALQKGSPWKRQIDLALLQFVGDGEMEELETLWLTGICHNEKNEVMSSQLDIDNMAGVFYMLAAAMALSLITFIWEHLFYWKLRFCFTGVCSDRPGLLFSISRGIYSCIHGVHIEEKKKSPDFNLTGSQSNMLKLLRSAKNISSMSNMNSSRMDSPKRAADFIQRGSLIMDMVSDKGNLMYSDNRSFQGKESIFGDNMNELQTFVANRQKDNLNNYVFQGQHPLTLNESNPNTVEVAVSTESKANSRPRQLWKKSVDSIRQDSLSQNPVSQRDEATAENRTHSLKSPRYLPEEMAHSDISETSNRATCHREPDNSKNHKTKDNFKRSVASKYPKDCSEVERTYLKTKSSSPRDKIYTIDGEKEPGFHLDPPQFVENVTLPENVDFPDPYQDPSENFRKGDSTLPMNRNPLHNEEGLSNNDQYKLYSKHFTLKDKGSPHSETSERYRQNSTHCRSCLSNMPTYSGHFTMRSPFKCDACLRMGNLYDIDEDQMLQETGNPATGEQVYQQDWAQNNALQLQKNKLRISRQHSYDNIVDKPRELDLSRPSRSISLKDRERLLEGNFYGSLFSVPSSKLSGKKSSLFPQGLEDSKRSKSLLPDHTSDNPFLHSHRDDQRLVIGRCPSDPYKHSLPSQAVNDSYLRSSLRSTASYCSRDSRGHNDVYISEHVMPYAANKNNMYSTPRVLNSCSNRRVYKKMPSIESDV

Compound: CNC1(C)[C@H]2CCC(C2)C1(C)C (stereo partly drawn) [TC-5214, (S)—N,2,3,3-tetramethylnorbornan-2-amine]
- extent of inhibition over concentration range (FIG. 22) (NMDA receptor NR1a-NR2A; 3, 10, 30, 100, 300 nM, Glutamate 10 μM-Glycine 1 μM): complete inhibition
- concentration at which it potently inhibits (NMDA receptor NR1a-NR2A; FIG. 23 legend): 10 to 30 nM
- recovery following wash-out (NMDA receptor NR1a-NR2A; after sustained exposure): clear evidence for recovery
- expected mean concentrations (urine) in humans ([1]; 0.5 mg BID dosing): approximately 3 μM
- mean urine concentrations ([1]; 1 mg BID): approximately 6 μM
- excretion unchanged in the urine [1]: eliminated unchanged in the urine
- excretion unchanged in the urine ([1]; listed as dexmecamylamine): excreted almost entirely unchanged in the urine
- concentrations in the bladder ([1]; oral doses up to 4 mg BID): > 10 µM
- orally administered dose excreted unchanged in the bladder ([1]; oral, clinical program for depression incl. initial phase 1 study): ≥ 90%
- efficacy in the treatment of depression ([2]; adjunctive therapy, Phase 3 program): failed to demonstrate efficacy
- vital signs, blood or urine laboratory measurements, ECG conduction intervals, suicidality ([2]; human, in vivo): no noteworthy differences
- side effects due to urinary retention [3]: without therapy-limiting side effects due to urinary retention
- NOEL (30 days oral): 1 mg/kg/day
- mortality and histopathologic changes (doses up to and including 50 mg/kg/day): did not produce any mortalities nor any histopathologic changes
- bladder contraction amplitude [4]: placebo-like
- bladder contraction amplitude ([4]; listed as dexmecamylamine): without producing detrimental changes; also recorded: insignificant effect
- change in spontaneous activity (SA), a surrogate for urge [4]: statistically significant differential
- change in spontaneous activity (SA), a surrogate for urge ([4]; listed as dexmecamylamine): significant decrease
- bladder compliance ([4]; relative to baseline): without producing detrimental changes
- micturition pressure ([4]; relative to baseline): without producing detrimental changes
- change in bladder capacity [4]: statistically significant increase
- change in micturition interval / ICI [4]: statistically significant increase
- change in micturition volume [4]: statistically significant increase
- change in bladder capacity ([4]; listed as dexmecamylamine): statistically significant (Student paired-t test) increases
- change in micturition interval / ICI ([4]; listed as dexmecamylamine): statistically significant (Student paired-t test) increases
- change in micturition volume ([4]; listed as dexmecamylamine): statistically significant (Student paired-t test) increases
- micturition interval ([4]; Last 1H (from 2 h after dosing), baseline First 1H 6.44 ± 1.24, FIG. 25 gives minutes): 9.44 ± 1.87
- RV (Bcap-MV) ([4]; Last 1H, baseline First 1H 0.06 ± 0.02): 0.09 ± 0.04
- B compliance ([4]; Last 1H, baseline First 1H 0.11 ± 0.03): 0.13 ± 0.03
- Bcap ([4]; Last 1H, baseline First 1H 1.04 ± 0.24): 1.58 ± 0.31
- SA (IMP-BP) ([4]; Last 1H, baseline First 1H 6.55 ± 2.01): 6.99 ± 2.57
- BP (baseline) ([4]; Last 1H, baseline First 1H 10.39 ± 1.96): 8.60 ± 1.10
- IMP ([4]; Last 1H, baseline First 1H 16.94 ± 3.94): 15.6 ± 2.91
- TP ([4]; Last 1H, baseline First 1H 23.27 ± 3.82): 23.3 ± 2.0

Source: patent US8901177B2, “Method of treating bladder disorders” (Targacept, Inc., priority 2012, dated 2014)
